Measurements: patent publication US7524861B2, “Process for the preparation of a hydrate of an anthranilic acid derivative” (priority 2002, dated 2009)
Marks after values point to notes of the source that are not given here.

Experiments:
[1] = Hygroscopicity study (weight change on storage at 33-95% RH, KF water content); format: physicochemical; details: for KF moisture result: hygroscopicity sample
Protocol: (§1) The hexahydrate produced in Example 1 was analysed as follows. Four desiccator cabinets were prepared to contain open dishes of the following saturated salt solutions, to achieve the following approximate relative humidities (RH).
(§2) Dehydration of samples was carried out by storing them over silica gel or over P2O5 at reduced pressure (65 mm Hg). All studies were performed at ambient laboratory temperature (15-22° C.).
Pre-equilibrated weighing bottles and lids (stored at 33% RH for a minimum of 24 hours) were weighed on a tared 5-figure analytical balance, and the weight recorded. To these the hydrate was added (approx 2 g), the weight recorded and the difference (the accurate weight of the drug substance) calculated. The weighing bottles, lids and contents were then transferred to the 33% RH cabinet, with the lids removed and placed to the side.
At appropriate times, the lids were replaced and the weight measured. After weighing, the samples were gently agitated and placed back in the 33% RH cabinet, again with the lid removed and placed to one side. This process continued until all % weight changes for all samples were seen to have reached stable end-points. […]. When stable end-points were observed, the samples were stepped up to the next % RH cabinet by transferring the drug to pre-equilibrated weighing bottles, recording their weight as before. Samples were stored progressively at 33% RH, 60% RH, 75% RH and 95% RH.
(§3) Water contents were measured by coulometric KF (Karl Fischer) titration.

[2] = Dehydration/re-hydration study (weight change over desiccants, then 33-95% RH, KF water content); format: physicochemical
Protocol: as §1, §2
During this study, samples were dispensed to pre-equilibrated weighing bottles as in the hygroscopicity study, and were then stored over silica gel without reduced pressure, then over […] under reduced pressure (65 mm Hg) to dehydrate the hydrate. Once a stable weight was achieved over P2O5, samples were re-hydrated by storing them at 33% RH to 95% RH, in parallel with the hygroscopicity study as described above.
as §3

Cumulative % change Hygroscopicity ([1]; 33% RH, tabulated time 1147.25 h (actual: minus 1144 h)): −0.17* % | Cumulative % change Hygroscopicity ([1]; 33% RH, tabulated time 1150.75 h (actual: minus 1144 h)): −0.22% | Cumulative % change Hygroscopicity ([1]; 33% RH, tabulated time 1168.00 h (actual: minus 1144 h)): −0.47% | Cumulative % change Hygroscopicity ([1]; 33% RH, tabulated time 1240.75 h (actual: minus 1144 h)): −0.37% | Cumulative % change Hygroscopicity ([1]; 33% RH, tabulated time 1268.50 h (actual: minus 1144 h)): −0.42% | Cumulative % change Hygroscopicity ([1]; 33% RH, tabulated time 1312.50 h (actual: minus 1144 h)): −0.49% | Cumulative % change Hygroscopicity ([1]; 33% RH, tabulated time 1431.25 h (actual: minus 1144 h)): −0.63% | Cumulative % change Hygroscopicity ([1]; 33% RH, tabulated time 1502.25 h (actual: minus 1144 h)): −0.51% | Cumulative % change Hygroscopicity ([1]; 33% RH, tabulated time 1672.50 h (actual: minus 1144 h)): −0.70% | Cumulative % change Hygroscopicity ([1]; 33% RH, tabulated time 1741.50 h (actual: minus 1144 h)): −0.76% | hygroscopicity on storage at progressively higher RH values ([1]; 33% to 95% RH, ambient temperature): no evidence of hygroscopicity | Cumulative % change Hygroscopicity ([1]; 60% RH, tabulated time 1744.50 h (actual: minus 1144 h)): 0.12% | Cumulative % change Hygroscopicity ([1]; 60% RH, tabulated time 1746.50 h (actual: minus 1144 h)): 0.13% | Cumulative % change Hygroscopicity ([1]; 60% RH, tabulated time 1762.50 h (actual: minus 1144 h)): 0.08% | Cumulative % change Hygroscopicity ([1]; 60% RH, tabulated time 1835.75 h (actual: minus 1144 h)): 0.27% | Cumulative % change Hygroscopicity ([1]; 60% RH, tabulated time 1932.25 h (actual: minus 1144 h)): 0.37% | Cumulative % change Hygroscopicity ([1]; 60% RH, tabulated time 2101.50 h (actual: minus 1144 h)): 0.56% | Cumulative % change Hygroscopicity ([1]; 60% RH, tabulated time 2147.75 h (actual: minus 1144 h)): 0.34% | Cumulative % change Hygroscopicity ([1]; 60% RH, tabulated time 2273.75 h (actual: minus 1144 h)): 0.34% | Cumulative % change Hygroscopicity ([1]; 60% RH, tabulated time 2410.25 h (actual: minus 1144 h)): 0.27% | Cumulative % change Hygroscopicity ([1]; 75% RH, tabulated time 2417.25 h (actual: minus 1144 h)): 0.87% | Cumulative % change Hygroscopicity ([1]; 75% RH, tabulated time 2434.25 h (actual: minus 1144 h)): 0.88% | Cumulative % change Hygroscopicity ([1]; 75% RH, tabulated time 2441.25 h (actual: minus 1144 h)): 0.88% | Cumulative % change Hygroscopicity ([1]; 75% RH, tabulated time 2482.00 h (actual: minus 1144 h)): 0.92% | Cumulative % change Hygroscopicity ([1]; 75% RH, tabulated time 2577.75 h (actual: minus 1144 h)): 1.00% | Cumulative % change Hygroscopicity ([1]; 75% RH, tabulated time 2609.75 h (actual: minus 1144 h)): 0.96% | Cumulative % change Hygroscopicity ([1]; 75% RH, tabulated time 2681.25 h (actual: minus 1144 h)): 1.08% | Cumulative % change Hygroscopicity ([1]; 75% RH, tabulated time 2770.25 h (actual: minus 1144 h)): 1.01% | Cumulative % change Hygroscopicity ([1]; 75% RH, tabulated time 2817.75 h (actual: minus 1144 h)): 1.09% | Cumulative % change Hygroscopicity ([1]; 95% RH, tabulated time 2825.25 h (actual: minus 1144 h)): 1.85% | Cumulative % change Hygroscopicity ([1]; 95% RH, tabulated time 2841.75 h (actual: minus 1144 h)): 2.23% | Cumulative % change Hygroscopicity ([1]; 95% RH, tabulated time 2915.75 h (actual: minus 1144 h)): 2.57% | Cumulative % change Hygroscopicity ([1]; 95% RH, tabulated time 2937.75 h (actual: minus 1144 h)): 2.71% | Cumulative % change Hygroscopicity ([1]; 95% RH, tabulated time 2991.25 h (actual: minus 1144 h)): 2.82% | Cumulative % change Hygroscopicity ([1]; 95% RH, tabulated time 3082.25 h (actual: minus 1144 h)): 3.28% | Cumulative % change Hygroscopicity ([1]; 95% RH, tabulated time 3130.00 h (actual: minus 1144 h)): 3.51% | Cumulative % change Hygroscopicity ([1]; 95% RH, tabulated time 3182.25 h (actual: minus 1144 h)): 3.39% | Cumulative % change Hygroscopicity ([1]; 95% RH, tabulated time 3252.25 h (actual: minus 1144 h)): 3.62% | Cumulative % change Hygroscopicity ([1]; 95% RH, tabulated time 3350.25 h (actual: minus 1144 h)): 3.65% | Cumulative % change Hygroscopicity ([1]; 95% RH, tabulated time 3422.25 h (actual: minus 1144 h)): 3.64% | Cumulative % change Hygroscopicity ([1]; 95% RH, tabulated time 3636.25 h (actual: minus 1144 h)): 4.12% | Cumulative % change Hygroscopicity ([1]; 95% RH, tabulated time 4332.75 h (actual: minus 1144 h)): 4.45% | weight increase between storage at 33% RH and end of storage at 75% RH ([1]; both re-hydrated and untreated samples): less than 2 % (absolute) | KF moisture result ([1]; 95% RH, tabulated time 4332.75 h (end)): (15.35) % w/w | KF moisture result ([1]; printed in first 33% RH row (start of study)): (12.45) % w/w | Cumulative % change Dehydration/Rehydration ([2]; 60% RH, cumulative time 1744.50 h): 0.19% | Cumulative % change Dehydration/Rehydration ([2]; 60% RH, cumulative time 1746.50 h): 0.31% | Cumulative % change Dehydration/Rehydration ([2]; 60% RH, cumulative time 1762.50 h): 0.30% | Cumulative % change Dehydration/Rehydration ([2]; 60% RH, cumulative time 1835.75 h): 0.54% | Cumulative % change Dehydration/Rehydration ([2]; 60% RH, cumulative time 1932.25 h): 0.64% | Cumulative % change Dehydration/Rehydration ([2]; 60% RH, cumulative time 2101.50 h): 0.86% | Cumulative % change Dehydration/Rehydration ([2]; 60% RH, cumulative time 2147.75 h): 0.62% | Cumulative % change Dehydration/Rehydration ([2]; 60% RH, cumulative time 2273.75 h): 0.61% | Cumulative % change Dehydration/Rehydration ([2]; 60% RH, cumulative time 2410.25 h): 0.51% | Cumulative % change Dehydration/Rehydration ([2]; 75% RH, cumulative time 2417.25 h): 1.18% | Cumulative % change Dehydration/Rehydration ([2]; 75% RH, cumulative time 2434.25 h): 1.21%
Structure (SMILES): COc1cc2c(cc1OC)CN(CCc1ccc(NC(=O)c3cc(OC)c(OC)cc3NC(=O)c3cnc4ccccc4c3)cc1)CC2 [Example 1, Quinoline-3-carboxylic acid (2-{4-[2-(6,7-dimethoxy-3,4-dihydro-1H-isoquinolin-2-yl)-ethyl]-phenylcarbamoyl}-4,5-dimethoxy-phenyl)-amide]
